In ChEMBL document CHEMBL6182909 (J Med Chem, 2025):
Each block holds one molecule with its values, some of them ahead of it.

Legend:
Rattus norvegicus [1] = test: Hypophagic effect in fasted male Sprague-Dawley rat assessed as inhibition of food intake at 10 mg/kg, po measured after 1 hr relative to control; assay type: functional
[2] = target: T1, 5-hydroxytryptamine receptor 2A (Homo sapiens, UniProt P28223); test: Displacement of [125I]-DOI from 5-HT2A receptor (unknown origin) expressed in HEK293 cell membrane incubated for 1 hr by scintillation counter analysis; assay type: cell membranes
T1 sequence (P28223 whole entry): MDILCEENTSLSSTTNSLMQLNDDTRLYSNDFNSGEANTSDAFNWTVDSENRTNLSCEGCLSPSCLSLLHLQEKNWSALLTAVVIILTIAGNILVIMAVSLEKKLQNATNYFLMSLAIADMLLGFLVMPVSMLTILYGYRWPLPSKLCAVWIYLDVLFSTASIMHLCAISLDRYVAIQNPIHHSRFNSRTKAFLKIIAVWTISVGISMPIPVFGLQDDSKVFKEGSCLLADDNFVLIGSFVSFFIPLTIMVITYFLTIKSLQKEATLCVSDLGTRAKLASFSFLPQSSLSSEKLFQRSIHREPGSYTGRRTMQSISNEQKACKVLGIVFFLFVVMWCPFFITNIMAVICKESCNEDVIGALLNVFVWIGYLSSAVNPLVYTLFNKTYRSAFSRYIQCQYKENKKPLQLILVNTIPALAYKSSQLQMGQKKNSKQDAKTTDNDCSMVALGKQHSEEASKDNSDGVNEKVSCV

[3] = target: T2, 5-hydroxytryptamine receptor 2B (Homo sapiens, UniProt P41595); test: Displacement of [125I]-DOI from 5-HT2B receptor (unknown origin) expressed in HEK293 cell membrane incubated for 1 hr by scintillation counter analysis; assay type: cell membranes
T2 sequence (P41595 whole entry): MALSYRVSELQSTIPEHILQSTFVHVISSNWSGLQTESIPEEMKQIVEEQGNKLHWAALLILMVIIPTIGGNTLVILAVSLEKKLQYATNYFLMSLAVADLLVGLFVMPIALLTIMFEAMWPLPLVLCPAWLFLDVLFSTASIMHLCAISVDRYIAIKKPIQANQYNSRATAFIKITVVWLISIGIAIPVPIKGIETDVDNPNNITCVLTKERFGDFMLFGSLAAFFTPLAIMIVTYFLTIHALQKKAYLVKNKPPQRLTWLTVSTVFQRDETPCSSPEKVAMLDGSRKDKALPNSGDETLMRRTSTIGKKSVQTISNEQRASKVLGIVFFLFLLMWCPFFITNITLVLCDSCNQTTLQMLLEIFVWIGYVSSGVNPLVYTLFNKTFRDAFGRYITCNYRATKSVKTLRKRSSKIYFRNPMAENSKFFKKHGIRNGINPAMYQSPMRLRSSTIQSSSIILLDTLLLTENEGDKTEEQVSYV

[4] = target: T1, 5-hydroxytryptamine receptor 2A; test: Displacement of [125I]-DOI from 5-HT2A receptor (unknown origin) expressed in HEK293 cell membrane assessed as inhibition constant incubated for 1 hr by scintillation counter analysis; assay type: cell membranes
[5] = target: T3, 5-hydroxytryptamine receptor 2C (Homo sapiens, UniProt P28335)
T3 sequence (P28335 whole entry): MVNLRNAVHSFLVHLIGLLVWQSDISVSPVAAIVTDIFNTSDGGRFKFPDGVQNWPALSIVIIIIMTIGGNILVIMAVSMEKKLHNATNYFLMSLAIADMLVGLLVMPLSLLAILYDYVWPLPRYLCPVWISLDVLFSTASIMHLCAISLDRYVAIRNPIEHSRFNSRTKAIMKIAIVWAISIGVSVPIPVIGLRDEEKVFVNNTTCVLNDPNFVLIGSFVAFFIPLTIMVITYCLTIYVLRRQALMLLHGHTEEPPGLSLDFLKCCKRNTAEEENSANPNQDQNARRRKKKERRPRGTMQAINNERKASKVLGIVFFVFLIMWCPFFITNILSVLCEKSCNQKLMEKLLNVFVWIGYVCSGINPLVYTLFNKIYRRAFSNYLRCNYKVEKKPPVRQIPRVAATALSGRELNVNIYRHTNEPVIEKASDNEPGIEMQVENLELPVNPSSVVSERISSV

[6] = target: T2, 5-hydroxytryptamine receptor 2B; test: Displacement of [125I]-DOI from 5-HT2B receptor (unknown origin) expressed in HEK293 cell membrane assessed as inhibition constant incubated for 1 hr by scintillation counter analysis; assay type: cell membranes
[7] = target: T3, 5-hydroxytryptamine receptor 2C; remark: listed apart in the source
[8] = Tmax in dog at 5 mg/kg, po; assay type: ADME, organism-based, Canis lupus familiaris; settings: in vivo
[9] = Renal clearance in dog at 2 mg/kg, iv; assay type: ADME, organism-based, Canis lupus familiaris; settings: in vivo
[10] = Clearance in Cynomolgus monkey at 2 mg/kg, iv; assay type: ADME, organism-based, Macaca fascicularis; settings: in vivo
[11] = Oral bioavailability in rat at 5 mg/kg; assay type: ADME, organism-based; settings: in vivo
[12] = Drug concentration in plasma of fasted male Sprague-Dawley rat assessed as inhibition of food intake at 10 mg/kg, po measured after 1 hr relative to control; assay type: organism-based
[13] = Clearance in rat at 2 mg/kg, iv; assay type: ADME, organism-based; settings: in vivo
[14] = Oral bioavailability in mouse at 5 mg/kg; assay type: ADME, organism-based; settings: in vivo
[15] = Renal clearance in rat at 2 mg/kg, iv; assay type: ADME, organism-based; settings: in vivo
[16] = Volume of distribution at steady state in Cynomolgus monkey at 2 mg/kg, iv; assay type: ADME, organism-based, Macaca fascicularis; settings: in vivo, read-out: Vdss
[17] = Volume of distribution at steady state in dog at 2 mg/kg, iv; assay type: ADME, organism-based, Canis lupus familiaris; settings: in vivo, read-out: Vdss
[18] = AUC (0 to infinity) in dog at 5 mg/kg, po; assay type: ADME, organism-based, Canis lupus familiaris; settings: in vivo
[19] = Half life in dog at 5 mg/kg, po; assay type: ADME, organism-based, Canis lupus familiaris; settings: in vivo
[20] = Cmax in Cynomolgus monkey at 5 mg/kg, po; assay type: ADME, organism-based, Macaca fascicularis; settings: in vivo
[21] = Volume of distribution at steady state in rat at 2 mg/kg, iv; assay type: ADME, organism-based; settings: in vivo, read-out: Vdss
Rattus norvegicus [22] = test: Hypophagic effect in fasted male Sprague-Dawley rat assessed as effective dose administered orally measured after 1 hr relative to control; assay type: functional; settings: route po
[23] = Tmax in mouse at 5 mg/kg, po; assay type: ADME, organism-based; settings: in vivo
[24] = Clearance in mouse at 2 mg/kg, iv; assay type: ADME, organism-based; settings: in vivo
[25] = Tmax in rat at 5 mg/kg, po; assay type: ADME, organism-based; settings: in vivo
[26] = Half life in rat at 5 mg/kg, po; assay type: ADME, organism-based; settings: in vivo
[27] = Volume of distribution at steady state in mouse at 2 mg/kg, iv; assay type: ADME, organism-based; settings: in vivo, read-out: Vdss
Rattus norvegicus [28] = test: Hypophagic effect in fasted male Sprague-Dawley rat assessed as inhibition of food intake at 5 mg/kg, po measured after 1 hr relative to control; assay type: functional
[29] = Oral bioavailability in dog at 5 mg/kg; assay type: ADME, organism-based, Canis lupus familiaris; settings: in vivo
[30] = AUC (0 to infinity) in dog at 2 mg/kg, iv; assay type: ADME, organism-based, Canis lupus familiaris; settings: in vivo
[31] = Cmax in mouse at 5 mg/kg, po; assay type: ADME, organism-based; settings: in vivo
[32] = Half life in rat at 2 mg/kg, iv; assay type: ADME, organism-based; settings: in vivo
[33] = AUC (0 to infinity) in Cynomolgus monkey at 5 mg/kg, po; assay type: ADME, organism-based, Macaca fascicularis; settings: in vivo
[34] = Drug concentration in brain of fasted male Sprague-Dawley rat assessed as inhibition of food intake at 10 mg/kg, po measured after 1 hr relative to control; assay type: organism-based; settings: read-out: Ct
[35] = Half life in Cynomolgus monkey at 2 mg/kg, iv; assay type: ADME, organism-based, Macaca fascicularis; settings: in vivo
[36] = Half life in dog at 2 mg/kg, iv; assay type: ADME, organism-based, Canis lupus familiaris; settings: in vivo
[37] = Tmax in Cynomolgus monkey at 5 mg/kg, po; assay type: ADME, organism-based, Macaca fascicularis; settings: in vivo
[38] = Cmax in dog at 5 mg/kg, po; assay type: ADME, organism-based, Canis lupus familiaris; settings: in vivo
[39] = Half life in mouse at 2 mg/kg, iv; assay type: ADME, organism-based; settings: in vivo
[40] = AUC (0 to infinity) in mouse at 2 mg/kg, iv; assay type: ADME, organism-based; settings: in vivo
[41] = Oral bioavailability in Cynomolgus monkey at 5 mg/kg; assay type: ADME, organism-based, Macaca fascicularis; settings: in vivo
[42] = Cmax in rat at 5 mg/kg, po; assay type: ADME, organism-based; settings: in vivo
[43] = Renal clearance in Cynomolgus monkey at 2 mg/kg, iv; assay type: ADME, organism-based, Macaca fascicularis; settings: in vivo
[44] = AUC (0 to infinity) in rat at 2 mg/kg, iv; assay type: ADME, organism-based; settings: in vivo
[45] = Clearance in dog at 2 mg/kg, iv; assay type: ADME, organism-based, Canis lupus familiaris; settings: in vivo
[46] = AUC (0 to infinity) in Cynomolgus monkey at 2 mg/kg, iv; assay type: ADME, organism-based, Macaca fascicularis; settings: in vivo
[47] = AUC (0 to infinity) in rat at 5 mg/kg, po; assay type: ADME, organism-based; settings: in vivo
[48] = AUC (0 to infinity) in mouse at 5 mg/kg, po; assay type: ADME, organism-based; settings: in vivo
[49] = Half life in Cynomolgus monkey at 5 mg/kg, po; assay type: ADME, organism-based, Macaca fascicularis; settings: in vivo
[50] = Half life in mouse at 5 mg/kg, po; assay type: ADME, organism-based; settings: in vivo

SMILES: CCC1CN2CCNCc3ccc(C(=O)NC)c1c32 (single isomer, unassigned; (-))
inhibition (INH) (Rattus norvegicus [1]; 10 mg/kg): 0%

EC50 [2]: > 50 µM | EC50 [3]: > 50 µM | Ki [4]: 6.07 µM | EC50 [5]: 0.033 µM | Ki [6]: 15.5 µM | Ki [7]: 0.043 µM
SMILES: CCOCCNC(=O)c1ccc2c3c1CCN3CCNC2
inhibition in vivo at 10 mg/kg (Rattus norvegicus [1]; Rattus norvegicus, Sprague-Dawley, po): 26%

Tmax [8]: 0.58 h | CL renal [9]: 0.00333 mL/min/kg | clearance [10]: 11.5 mL/min/kg | bioavailability [11]: 89% | concentration at 1 h [12]: 960 ng/mL | clearance [13]: 58.5 mL/min/kg | bioavailability [14]: 100% | CL renal [15]: 9.65 mL/min/kg | Vd [16]: 4.36 L/kg | Vd [17]: 1.85 L/kg | AUC(0-inf) [18]: 3920 ng·h/mL | half-life [19]: 4 h | Cmax [20]: 430 ng/mL | Vd [21]: 3.69 L/kg | Tmax [23]: 0.25 h | clearance [24]: 68.8 mL/min/kg | Tmax [25]: 0.5 h | half-life [26]: 2.5 h | Vd [27]: 2.98 L/kg | bioavailability [29]: 97% | AUC(0-inf) [30]: 1620 ng·h/mL | Cmax [31]: 820 ng/mL | half-life [32]: 1.6 h | AUC(0-inf) [33]: 4300 ng·h/mL | concentration at 1 h [34]: 832 ng/g | half-life [35]: 6.8 h | half-life [36]: 1.3 h | Tmax [37]: 3 h | Cmax [38]: 1590 ng/mL | half-life [39]: 0.66 h | AUC(0-inf) [40]: 318 ng·h/mL | bioavailability [41]: 58% | Cmax [42]: 450 ng/mL | CL renal [43]: 0.0333 mL/min/kg | AUC(0-inf) [44]: 577 ng·h/mL | clearance [45]: 20.7 mL/min/kg | AUC(0-inf) [46]: 2970 ng·h/mL | AUC(0-inf) [47]: 1280 ng·h/mL | AUC(0-inf) [48]: 910 ng·h/mL | half-life [49]: 5.52 h | half-life [50]: 1.5 h
SMILES: C[C@H]1CN2CCNCc3ccc(C(=O)NCC(F)F)c1c32 [BEXICASERIN]
ED50 (Rattus norvegicus [22]): 2.8 mg/kg | inhibition in vivo at 5 mg/kg (Rattus norvegicus [28]): 81%
